{
  "source": "paper PMC2714422",
  "about": "(Journal of medicinal chemistry, 2009)",
  "key": {"[1]": {"details": "hydrochloride salt form of 5; prior formulation work, ref not given; cited from earlier work"}, "[2]": {"system": "SK-Mel cells", "assay": "Cellular polyamine levels in SK-Mel cells, compound alone", "assay_type": "cell-based, human", "details": "10 µM for 24 hrs"}, "[3]": {"system": "squamous cell carcinoma (SCC) tumors", "assay": "K6/ODC transgenic mouse squamous cell carcinoma model", "assay_type": "in vivo"}, "[4]": {"system": "MDA-MB-231 cells", "assay": "Cellular polyamine depletion, PTI plus DFMO", "assay_type": "cell-based, human", "details": "5 days, 30 µM 5 or 0.1 µM 11 with 5.0 mM DFMO, 0.5 µM spermidine, 1.0 mM aminoguanidine"}, "[5]": {"details": "DFMO 0.5% in drinking water + 0.5 mg/kg 11 i.p. twice daily, 4 weeks"}},
  "note": "“Also recorded” adds a separate entry of the source.",
  "data": [
    {"smiles": "NCCCC[C@@H](N)C(=O)NCCCNCCCCNCCCN", "note": "[Compound 5, D-Lys-Spm]", "values": [
      {"measurement": "oral bioavailability, hydrochloride salt form", "setting": "[1]", "result": "< 1", "unit": "%"}
    ]},
    {"smiles": "CCCCCCCC(=O)NCCCC[C@H](N)C(=O)NCCCNCCCCNCCCN", "note": "[Compound 8]", "values": [
      {"measurement": "level of cellular polyamines, compound added alone", "setting": "[2]", "result": "none of these agents influenced the level of cellular polyamines"}
    ]},
    {"smiles": "CCCCCCCCCCCCCCCC(=O)NCCCC[C@H](N)C(=O)NCCCNCCCCNCCCN", "note": "[Compound 10, L-Lys-ε-(palmitoyl)-N^1-spermine]", "values": [
      {"measurement": "level of cellular polyamines, compound added alone", "setting": "[2]", "result": "none of these agents influenced the level of cellular polyamines"}
    ]},
    {"smiles": "CCCCCCCCCCCCCCCC(=O)NCCCC[C@@H](N)C(=O)NCCCNCCCCNCCCN", "note": "[Compound 11, D-Lys-ε-(palmitoyl)-N^1-spermine]", "values": [
      {"measurement": "toxicity at efficacious dose level", "setting": "[3]; 11 at 0.5 mg/kg i.p. twice daily with DFMO, mice", "result": "no apparent toxicity"},
      {"measurement": "SCCs with complete or near-complete responses (>95% volume reduction)", "setting": "[3]; [5]", "result": 71, "unit": "%"},
      {"measurement": "number of SCCs with complete responses out of 17", "setting": "[3]; [5]", "result": 9},
      {"measurement": "polyamine levels of the cell, combination with DFMO", "setting": "[4]", "result": "potent reduction in the polyamine levels"}
    ]},
    {"smiles": "NCCC[C@](N)(C(=O)O)C(F)F", "note": "[DFMO, α-difluoromethylornithine, reference compound]", "values": [
      {"measurement": "tumor growth effect of DFMO alone", "setting": "[3]; DFMO alone in drinking water", "result": "moderate tumor growth inhibitory effects; also recorded: weak effect"},
      {"measurement": "DFMO alone treated tumors that re-grew", "setting": "[3]; DFMO alone, 6 weeks off-treatment after 4 week treatment", "result": "11 of 12"}
    ]}
  ]
}
